From the supplement of paper PMC10627819

Legend:
[1] = system: B. subtilis 168; experiment: fitness (endpoint OD595 vs no drug) (fraction); higher = more growth
Procedure, shortened: (§1)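 Volumes were 30 µl per well, or 55 µl for S. pneumoniae, in 384-well plates inoculated at OD595 0.01. Media were TSB, LB Lennox or CY at 37 °C, and OD595 was read every 30 min for 14 h with first-reading background subtraction. Fitness is the ratio of optical density at stationary-phase entry to the robust mean of no-drug controls. That ratio is capped at 1.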

[2] = system: S. pneumoniae D39V; experiment: as above
Procedure, shortened: as §1

CN(C)[C@@H]1C(O)=C(C(N)=O)C(=O)[C@@]2(O)C(O)=C3C(=O)c4c(O)ccc(Cl)c4[C@@](C)(O)[C@H]3C[C@@H]12 [Chlortetracycline] + CO/N=C(\C(=O)N[C@@H]1C(=O)N2C(C(=O)O)=C(COC(N)=O)CS[C@H]12)c1ccco1 [Cefuroxime]
fitness, [1]
Conditions | first compound 0.0475 µg/mL | first compound 0.095 µg/mL | first compound 0.19 µg/mL
partner 0.04875 µg/mL | 0.667 | 0.593 | 0.162
partner 0.0975 µg/mL | 0.601 | 0.519 | 0.135
partner 0.195 µg/mL | 0.429 | 0.312 | 0.0926

fitness, [1], one replicate
Conditions | partner 0.39 µg/mL | partner 0.78 µg/mL | partner 1.562 µg/mL | partner 3.125 µg/mL | partner 6.25 µg/mL
first compound 0.0475 µg/mL | 0.346 | 0.362 | 0.303 | 0.275 | 0.21
first compound 0.095 µg/mL | 0.207 | 0.145 | 0.103 | 0.0825 | 0.0597
first compound 0.19 µg/mL | 0.0621 | 0.0481 | 0.038 | 0.0341 | 0.0237

CN(C)[C@@H]1C(O)=C(C(N)=O)C(=O)[C@@]2(O)C(O)=C3C(=O)c4c(O)ccc(Cl)c4[C@@](C)(O)[C@H]3C[C@@H]12 [Chlortetracycline] + CC(C1CCC(C(O1)OC2C(CC(C(C2O)OC3C(C(C(CO3)(C)O)NC)O)N)N)N)NC [Gentamicin]
main component drawn
Conditions | fitness
[1], first compound 0.0475 µg/mL, partner 0.0625 µg/mL | 0.917
[1], first compound 0.095 µg/mL, partner 0.0625 µg/mL | 0.778
[1], first compound 0.19 µg/mL, partner 0.25 µg/mL | 0.0795
[2], first compound 0.012 µg/mL, partner 2 µg/mL | 0.8
[2], first compound 0.012 µg/mL, partner 4 µg/mL | 0.752
[2], first compound 0.012 µg/mL, partner 8 µg/mL | 0.706
[2], first compound 0.024 µg/mL, partner 2 µg/mL | 0.393
[2], first compound 0.024 µg/mL, partner 4 µg/mL | 0.392
[2], first compound 0.024 µg/mL, partner 8 µg/mL | 0.389
[2], first compound 0.048 µg/mL, partner 2 µg/mL | 0.255
[2], first compound 0.048 µg/mL, partner 4 µg/mL | 0.184
[2], first compound 0.048 µg/mL, partner 8 µg/mL | 0.187
[2], first compound 0.375 µg/mL, partner 2 µg/mL | 0.0667
[2], first compound 0.375 µg/mL, partner 4 µg/mL | 0.0598
[2], first compound 0.375 µg/mL, partner 8 µg/mL | 0.0694
[2], first compound 0.75 µg/mL, partner 2 µg/mL | 0.0603
[2], first compound 0.75 µg/mL, partner 4 µg/mL | 0.0825
[2], first compound 0.75 µg/mL, partner 8 µg/mL | 0.0967
[2], first compound 1.5 µg/mL, partner 2 µg/mL | 0.0704
[2], first compound 1.5 µg/mL, partner 4 µg/mL | 0.0878
[2], first compound 1.5 µg/mL, partner 8 µg/mL | 0.0614

CN(C)[C@@H]1C(O)=C(C(N)=O)C(=O)[C@@]2(O)C(O)=C3C(=O)c4c(O)ccc(Cl)c4[C@@](C)(O)[C@H]3C[C@@H]12 [Chlortetracycline] + CN(C)C(=O)C(CCN1CCC(O)(c2ccc(Cl)cc2)CC1)(c1ccccc1)c1ccccc1 [Loperamide]
Conditions | fitness
[1], first compound 0.0475 µg/mL, partner 50 µg/mL | 0.0353
[1], first compound 0.0475 µg/mL, partner 100 µg/mL | 0.0088
[1], first compound 0.095 µg/mL, partner 25 µg/mL | 0.0158
[1], first compound 0.095 µg/mL, partner 50 µg/mL | 0.0367
[1], first compound 0.095 µg/mL, partner 100 µg/mL | 0.0243
[1], first compound 0.19 µg/mL, partner 25 µg/mL | 0.0386
[1], first compound 0.19 µg/mL, partner 50 µg/mL | 0.05
[1], first compound 0.19 µg/mL, partner 100 µg/mL | 0.0328
[2], first compound 0.012 µg/mL, partner 17.14 µg/mL | 0.967
[2], first compound 0.012 µg/mL, partner 34.28 µg/mL | 0.899
[2], first compound 0.024 µg/mL, partner 17.14 µg/mL | 0.926
[2], first compound 0.024 µg/mL, partner 34.28 µg/mL | 0.909
[2], first compound 0.048 µg/mL, partner 17.14 µg/mL | 0.829
[2], first compound 0.048 µg/mL, partner 34.28 µg/mL | 0.844
[2], first compound 0.375 µg/mL, partner 20 µg/mL | 0.0446
[2], first compound 0.375 µg/mL, partner 40 µg/mL | 0.0664
[2], first compound 0.375 µg/mL, partner 80 µg/mL | 0.065
[2], first compound 0.75 µg/mL, partner 20 µg/mL | 0.0563
[2], first compound 0.75 µg/mL, partner 40 µg/mL | 0.0762
[2], first compound 0.75 µg/mL, partner 80 µg/mL | 0.0821
[2], first compound 1.5 µg/mL, partner 20 µg/mL | 0.04
[2], first compound 1.5 µg/mL, partner 40 µg/mL | 0.0491
[2], first compound 1.5 µg/mL, partner 80 µg/mL | 0.0392

[2], partner 68.57 µg/mL, one replicate
Conditions | fitness
first compound 0.012 µg/mL | 0.908
first compound 0.024 µg/mL | 0.92
first compound 0.048 µg/mL | 0.8
